Results: BindingDB's records for doi:10.7270/Q2PR7TCX (The Scripps Research Institute Molecular Screening Center, 2007)

target: Steroidogenic factor 1 (Homo sapiens, UniProt Q13285); experiment: SF-1 inhibitors in Gal4 reporter counter-screen, dose response, counter-screen for RORA inhibitor project, cell-based, CHO-K1, Gal4-SF-1 LBD, luciferase luminescence (AID 611); details: not given
Sequence (Q13285 whole entry, the tested form may be a part): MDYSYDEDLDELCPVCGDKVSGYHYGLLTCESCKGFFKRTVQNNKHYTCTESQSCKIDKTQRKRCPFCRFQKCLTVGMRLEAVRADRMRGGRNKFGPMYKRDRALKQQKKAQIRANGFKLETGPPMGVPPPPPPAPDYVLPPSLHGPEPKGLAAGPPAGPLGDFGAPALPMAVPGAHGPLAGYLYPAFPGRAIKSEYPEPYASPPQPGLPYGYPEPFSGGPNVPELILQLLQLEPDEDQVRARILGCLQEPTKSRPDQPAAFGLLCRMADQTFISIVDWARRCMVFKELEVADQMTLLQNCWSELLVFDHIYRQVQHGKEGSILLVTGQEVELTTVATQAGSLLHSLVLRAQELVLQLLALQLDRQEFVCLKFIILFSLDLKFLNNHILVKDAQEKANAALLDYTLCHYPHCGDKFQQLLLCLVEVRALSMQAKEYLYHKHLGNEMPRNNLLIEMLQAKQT

Row | IC50 [µM] | SMILES
1 | 7.71 | CCN(C(=O)c1ccc(C(C)(C)C)cc1)c1nnc(Cn2nnc3ccccc32)s1 [MLS000072751]
2 | 5.78 | O=C(CSc1nnnn1-c1ccccc1)Nc1nsc(-c2ccc(Cl)cc2)n1 [MLS000085595]
3 | 7.05 | COc1ccc(-c2nc(CSCC(=O)NCc3ccco3)c(C)o2)cc1 [MLS000089353]
4 | 0.656 | COCCNC(=O)CSCc1nc(-c2ccc(SC)cc2)oc1C [MLS000089367]
5 | 6.81 | CN(C)c1ccc(-c2nc3ccccc3n2C)cc1 [MLS000089904]
6 | > 4.06 | O=C(NCc1ccco1)c1ccc2nc3sc4c(c3c(=O)n2c1)CCCC4 [MLS000091875]
7 | 0.44 | O=c1cc(N2CCN(c3cccc(Cl)c3)CC2)[nH]c(=O)n1C1CCCCC1 [MLS000094380]
8 | 5.3 | COc1ccc(C(=O)Nn2c(SCC(=O)NCc3ccco3)nc3ccccc3c2=O)cc1 [MLS000097349]
9 | 9.86 | O=C(NCCOc1ccccc1)c1ccc2c(c1)OCO2 [MLS000100028]
10 | 4.16 | O=C(Nc1nc2cc3c(cc2s1)OCO3)C1=COCCO1 [MLS000103798]
11 | 3.04 | CN(C)c1ccc(NC(=S)c2ccccn2)cc1 [MLS000111989]
12 | 3.4 | Cc1cc(C=Nn2cnnc2)c(C)n1-c1ccc(OCc2ccc(F)cc2)cc1 [MLS000112167]
13 | 7.58 | Cc1cc(C=Nn2cnnc2)c(C)n1-c1ccc(OCc2ccccc2F)cc1 [MLS000112180]
14 | 9.9 | Cc1ccc(-c2nnc(SCC(=O)Nc3ccccc3F)o2)cc1 [MLS000114725]
15 | > 3.67 | COc1ccc(CNC(=O)c2cc3c(C)nc4ccccc4c3o2)c(OC)c1 [MLS000118441]
16 | 1.91 | O=C(Nc1nc2ccccc2[nH]1)c1ccccc1F [N-1,3-dihydro-2H-benzimidazol-2-ylidene-2-fluorobenzamide]
17 | > 11 | O=C(Nc1nc2ccccc2[nH]1)c1ccc(F)cc1 [N-1,3-dihydro-2H-benzimidazol-2-ylidene-4-fluorobenzamide]
18 | 0.237 | N#Cc1c(NC(=O)CSc2nc[nH]n2)sc2c1CCCCC2 [N-(3-cyano-5,6,7,8-tetrahydro-4H-cyclohepta[b]thien-2-yl)-2-(1H-1,2,4-triazol-3-ylthio)acetamide]
19 | 5.97 | Cc1ccc(-c2csc(N3CCC(NS(=O)(=O)c4ccc5c(c4)OCCO5)CC3)n2)cc1 [N-[1-[4-(4-methylphenyl)-1,3-thiazol-2-yl]piperidin-4-yl]-2,3-dihydro-1,4-benzodioxine-6-sulfonamide]
20 | 21.9 | c1ccc(CNc2ncnc3ccccc23)cc1 [N-benzylquinazolin-4-amine]
21 | 7.19 | c1ccc2nc(-c3nc4ccccc4[nH]3)ccc2c1 [SMR000008748]
22 | 5.99 | O=S1(=O)C=C(Sc2nc3cc(Cl)ccc3o2)c2ccccc21 [SMR000019512]
23 | 1.64 | CCCCS(=O)(=O)/C=C\C=C/S(=O)(=O)CCCC [SMR000020833]
24 | 4.92 | CC(=O)c1c(C)[nH]c(C(=O)Nc2ccc(C)cn2)c1C [SMR000026816]
25 | 2.99 | c1ccc2c(c1)CCN(c1ncnc3c1[nH]c1ccccc13)C2 [SMR000039631]
26 | 4.13 | c1ccc(-c2nc(N3CCCCCC3)c3ccccc3n2)nc1 [SMR000046752]
27 | 8.16 | COCCn1c(C)cc(C(=O)COC(=O)c2[nH]nc3ccccc23)c1C [SMR000068187]
28 | 5.2 | COc1cc(NS(=O)(=O)c2ccc(C)cc2)c2ncccc2c1 [SMR000071147]
29 | 4.32 | COC(=O)/C(=C1/Oc2cc(C)oc(=O)c2S1)C(F)(F)F [methyl (2E)-3,3,3-tris(fluoranyl)-2-(6-methyl-4-oxidanylidene-[1,3]oxathiolo[4,5-c]pyran-2-ylidene)propanoate]
30 | 1.87 | CCCCCOC(=O)c1[nH]c2c(c1C)C(=O)CC(c1ccco1)C2 (stereo not given) [pentyl 6-(furan-2-yl)-3-methyl-4-oxidanylidene-1,5,6,7-tetrahydroindole-2-carboxylate]

same assay, conditions: inactive by the depositor's call

Row | IC50 [µM] | SMILES
31 | 11.3 | c1ccc(CN2CCN(c3ncnc4c3[nH]c3ccccc34)CC2)cc1 [MLS000078384]
32 | 10.4 | Fc1ccc2[nH]c3c(N4CCSCC4)ncnc3c2c1 [MLS000078401]
33 | 10.6 | CCOc1cc(C(=O)N2CCc3cc(OC)c(OC)cc3C2)ccc1OC(F)F [MLS000083614]
34 | 12.2 | CC1(C)COCN1S(=O)(=O)c1ccc(C(=O)Nc2nnc(-c3ccc(Cl)s3)o2)cc1 [MLS000086346]
35 | 11.5 | CCCOC(=O)c1[nH]c2c(c1C)C(=O)CC(c1cc(OC)c(OC)c(OC)c1)C2 (stereo not given) [MLS000116504]
